Experiments:
leukemia L1210 cell line [1] = test: Antitumor activity bioassay against leukemia L1210 cell line (IC50); format: cell-based
Description: Antitumor activities of the platinum complexes prepared in the above Examples 1 to 9 were assayed against the leukemia L1210 cell line according to the known method (S. S. Lee, O.-S. Jung, C. O. Lee, S. U. Choi, M.-J. Jun, Y. S. Sohn, Inorg. Chim. Acta, 239, 133 (1995)), and the results are shown in Table 1.

leukemia L1210 cell line [2] = test: Antitumor activity bioassay against leukemia L1210, T/C (%) at given dosage; format: in vivo

Row | Molecule | IC50 (leukemia L1210 cell line [1]) [µM] | T/C (%) (leukemia L1210 cell line [2]; dosage amount 20 mg/kg) | T/C (%) (leukemia L1210 cell line [2]; dosage amount 40 mg/kg) | T/C (%) (leukemia L1210 cell line [2]; dosage amount 4 mg/kg)
1 | CC(=O)N[C@@H](CCC(=O)[O-])C(=O)[O-].N[C@@H]1CCCC[C@H]1N.[Pt+2] (racemic) [Pt(dach)(AcGlu), (N-acetyl-L-glutamato-O,O)(trans-(±)-1,2-diaminocyclo-hexane-N,N)platinum(II) complex] | 4.63 | 227.3 | 190.9% | –
2 | N[C@@H]1CCCC[C@H]1N.O=C([O-])C[C@H](NC(=O)OCc1ccccc1)C(=O)[O-].[Pt+2] (racemic) [Pt(dach)(CbzAsp), (N-carbobenzyloxy-L-aspartato-O,O)(trans-(±)-1,2-diamino-cyclohexane-N,N)platinum(II)] | 26.5 | 175.0 | 193.8% | –
3 | N[C@@H]1CCCC[C@H]1N.O=C([O-])CC[C@H](NC(=O)OCc1ccccc1)C(=O)[O-].[Pt+2] (racemic) [Pt(dach)(CbzGlu), (N-carbobenzyloxy-L-glutamato-O,O)(trans-(±)-1,2-diaminocyclohexane-N,N)platinum(II)] | 65.1 | 170.0 | 207.5% | –
4 | N[C@@H]1CCCC[C@H]1N.O=C([O-])CC[C@@H](C(=O)[O-])N1C(=O)c2ccccc2C1=O.[Pt+2] (racemic) [Pt(dach)(PhthGlu), (N-phthaloyl-L-glutamato-O,O)(trans-(±)-1,2-diaminocyclo-hexane-N,N)platinum(II)] | 34.9 | 177.3 | 221.6% | –
5 | CC(C)(C)C(=O)N[C@@H](CCC(=O)[O-])C(=O)[O-].N[C@@H]1CCCC[C@H]1N.[Pt+2] (racemic) [Pt(dach)(PivGlu), (N-pivalyl-L-glutamato-O,O)(trans-(±)-1,2-diaminocyclo-hexane-N,N)platinum(II)] | 2.23 | 211.3 | 212.5% | –
6 | CCC(=O)N[C@@H](CCC(=O)[O-])C(=O)[O-].N[C@@H]1CCCC[C@H]1N.[Pt+2] (racemic) [Pt(dach)(ProGlu), (N-propionyl-L-glutamato-O,O)(trans-(±)-1,2-diaminocyclo-exane-N,N)platinum(II)] | 2.94 | 212.5 | 228.8% | –
7 | Cc1ccc(S(=O)(=O)N[C@@H](CCC(=O)[O-])C(=O)[O-])cc1.N[C@@H]1CCCC[C@H]1N.[Pt+2] (racemic) [Pt(dach)(TsGlu), (N-tosyl-L-glutamato-O,O)(trans-(±)-1,2-diaminocyclo-hexane-N,N)platinum(II)] | 17.6 | 176.3 | 191.3% | –
8 | N.N.O=C([O-])C1(C(=O)[O-])CCC1.[Pt+2] [Carboplatin, reference compound] | 10.2 | – | 168/40% | –
9 | N.N.[Cl][Pt][Cl] [Cisplatin, reference compound] | 1 | – | – | 184/4%
10 | CC(=O)N[C@@H](CC(=O)[O-])C(=O)[O-].CC(C)(CN)CN.[Pt+2] [Pt(dmpda)(AcAsp), (N-acetyl-L-aspartato-O,O)(2,2-dimethyl-1,3-propane-diamine-N,N)platinum(II)] | 3.19 | 146.2 | 160.4% | –
11 | (N-acetyl-L-aspartato-O,O)(trans-(±)-1,2-diaminocyclo-hexane-N,N)platinum(II) [Pt(dach)(AcAsp)] | 3.73 | 179.6 | 225.0% | –

— patent publication US6867316B2, “Platinum(II) complexes of N-substituted amino dicarboxylates and the preparation method thereof” (Board of Trustees, Ewha Womans University, priority 2003, dated 2005)
